Measured values taken from patent publication US11753397B2, “Cereblon binders for the degradation of ikaros” (C4 Therapeutics, Inc., priority 2018, dated 2023).

The molecules below were run on NCIH929.1 cells (assay: Cell viability assay (CellTiter-Glo 2.0, ATP quantification)). Conditions: NCIH929.1 cell viability, CellTiter-Glo 2.0, 96 hr incubation, top concentration 1 μM.
Format: cell-based
In short: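 Cells seeded at 750/well in RPMI with 10% FBS and 0.05 mM 2-mercaptoethanol, exposed 96 h at 37 °C to 10-point half-log dilutions in duplicate, top 1 μM. Viability by CellTiter-Glo 2.0 ATP luminescence, with a day-0 read as cytostatic baseline (CT0).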
In the case of CC1(C(=O)N2CCC(n3ncc(CNc4cccc5c4C(=O)N(C4CCC(=O)NC4=O)C5=O)c3Br)CC2)CCC1 (stereo not drawn) [Compound 188, 4-(((5-Bromo-1-(1-(1-methylcyclobutane-1-carbonyl)piperidin-4-yl)-1H-pyrazol-4-yl)methyl)amino)-2-(2,6-dioxopiperidin-3-yl)isoindoline-1,3-dione], the GI50 is reported as < 100 nM.
CC(C)(C)OC(=O)N1CCC(n2ncc(CNc3cccc4c3C(=O)N(C3CCC(=O)NC3=O)C4=O)c2CC(=O)C2CC2)CC1 (stereo not drawn) [Compound 189, tert-Butyl 4-[5-(2-cyclopropyl-2-oxo-ethyl)-4-[[[2-(2,6-dioxo-3-piperidyl)-1,3-dioxo-isoindolin-4-yl]amino]methyl]pyrazol-1-yl]piperidine-1-carboxylate] was tested, and the GI50 was < 100 nM.
For CC1(C(=O)N2CCC(n3ncc(CNc4cccc5c4C(=O)N(C4CCC(=O)NC4=O)C5=O)c3C#CC3CC3)CC2)CCC1 (stereo not drawn) [Compound 190, 4-(((5-(Cyclopropylethynyl)-1-(1-(1-methylcyclobutane-1-carbonyl)piperidin-4-yl)-1H-pyrazol-4-yl)methyl)amino)-2-(2,6-dioxopiperidin-3-yl)isoindoline-1,3-dione], the GI50 was < 100 nM.
In the case of CC1(C(=O)N2CCC(n3cc(CNc4cccc5c4C(=O)N(C4CCC(=O)NC4=O)C5=O)c(Cl)n3)CC2)CCC1 (stereo not drawn) [Compound 191, 4-[[3-chloro-1-[1-(1-methylcyclobutanecarbonyl)-4-piperidyl]pyrazol-4-yl]methylamino]-2-(2,6-dioxo-3-piperidyl)isoindoline-1,3-dione], the GI50 is reported as < 1 nM.
With C#Cc1c(CNc2cccc3c2C(=O)N(C2CCC(=O)NC2=O)C3=O)cnn1C1CCN(C(=O)C2(C)CCC2)CC1 (stereo not drawn) [Compound 192, 2-(2,6-Dioxopiperidin-3-yl)-4-(((5-ethynyl-1-(1-(1-methylcyclobutane-1-carbonyl)piperidin-4-yl)-1H-pyrazol-4-yl)methyl)amino)isoindoline-1,3-dione] the GI50 was < 100 nM.
CC1(C(=O)N2CCC(n3ncc(CNc4cccc5c4C(=O)N(C4CCC(=O)NC4=O)C5=O)c3C#N)CC2)CCC1 (stereo not drawn) [Compound 194, 4-(((2-(2,6-Dioxopiperidin-3-yl)-1,3-dioxoisoindolin-4-yl)amino)methyl)-1-(1-(1-methylcyclobutane-1-carbonyl)piperidin-4-yl)-1H-pyrazole-5-carbonitrile] was tested, and the GI50 was < 100 nM.
In the case of CC1(C)C[C@H](n2cc(CNc3cccc4c3C(=O)N(C3CCC(=O)NC3=O)C4=O)cn2)CCN1C(=O)C12C3C4C5C3C1C5C42 (stereo partly drawn) [Compound 196, 4-[[1-[(4R)-1-(Cubane-1-carbonyl)-2,2-dimethyl-4-piperidyl]pyrazol-4-yl]methylamino]-2-(2,6-dioxo-3-piperidyl)isoindoline-1,3-dione], the GI50 is reported as < 1 nM.
CC1(C)C[C@@H](n2cc(CNc3cccc4c3C(=O)N(C3CCC(=O)NC3=O)C4=O)cn2)CCN1C(=O)C12C3C4C5C3C1C5C42 (stereo partly drawn) [Compound 197, 4-[[1-[(4S)-1-(Cubane-1-carbonyl)-2,2-dimethyl-4-piperidyl]pyrazol-4-yl]methylamino]-2-(2,6-dioxo-3-piperidyl)isoindoline-1,3-dione] was tested, and the GI50 was < 100 nM.
For CC(C)(C)OC(=O)N1CCC(n2cc(C(Nc3cccc4c3C(=O)N(C3CCC(=O)NC3=O)C4=O)c3cn(C4CCN(C(=O)OC(C)(C)C)CC4)nn3)nn2)CC1 (stereo not drawn) [Compound 203, tert-Butyl 4-[4-[[1-(1-tert-butoxycarbonyl-4-piperidyl)triazol-4-yl]-[[2-(2,6-dioxo-3-piperidyl)-1,3-dioxo-isoindolin-4-yl]amino]methyl]triazol-1-yl]piperidine-1-carboxylate], the GI50 was > 100 nM.
In the case of O=C1CCC(N2C(=O)c3cccc(NCc4cnn(C5CCN(CC6(C#CC7CC7)CCC6)CC5)c4)c3C2=O)C(=O)N1 (stereo not drawn) [Compound 204, 4-({1-[1-(1-Cyclopropylethynyl-cyclobutylmethyl)-piperidin-4-yl]-1H-pyrazol-4-ylme-thyl}-amino)-2-(2,6-dioxo-piperidin-3-yl)-isoindole-1,3-dione], the GI50 is reported as < 100 nM.
With O=C1CCC(N2C(=O)c3cccc(NCc4cnn(C5CCN(C(=O)C6(C#CC7CC7)CCC6)CC5)c4)c3C2=O)C(=O)N1 (stereo not drawn) [Compound 205, 4-({1-[1-(1-Cyclopropylethynyl-cyclobutanecarbonyl)-piperidin-4-yl]-1H-pyrazol-4-yl-methyl}-amino)-2-(2,6-dioxo-piperidin-3-yl)-isoindole-1,3-dione] the GI50 was < 100 nM.
For CC1(C(=O)N2CCC(n3ncc4c3CCC4Nc3cccc4c3C(=O)N(C3CCC(=O)NC3=O)C4=O)CC2)CCC1 (stereo not drawn) [Compound 207, 2-(2,6-Dioxo-piperidin-3-yl)-4-{1-[1-(1-methyl-cyclobutanecarbonyl)-piperidin-4-yl]-1,4,5,6-tetrahydro-cyclopentapyrazol-4-ylamino}-isoindole-1,3-dione], the GI50 was < 100 nM.
